This is an account of results in patent US9540646B2, “Cellular targets for HIV infection” (priority 2012, dated 2017).

The test system of one data set is HIV. The experiment in a line: HIV replication in macrophage cultures, strain not named. The format is cell-based. As to the method: HIV replication: After 6 days in culture, macrophages in 48-well plates at a density of 10^5 cells per well were inoculated with 2-20 ng/ml HIVADA, 2 ng/ml HIVYU-2, or 0.2 ng/ml HIVBaL for 24 hours in the presence or absence of purinergic receptor inhibitors. 5 wells were inoculated per condition. After 24 hours, cells were washed with PBS and then cultured with media. Supernatants were collected and medium was changed every 24 hours until 7 days post inoculation (d.p.i.). When the inhibitors oATP, A-740003, MRS 2179, NF 279, BBG, or suramin, were used, they were added when the medium was changed every 24 hours. Viral replication was analyzed by HIV p24 ELISA (Advanced Bioscience Laboratories, Kensington, Md.) according to the manufacturer's instructions

For data set [1] the following is noted: cited from earlier work.
Another data set relates to Macrophages. The experiment in a line: Cell viability of macrophages, live/dead assay. In kind it is cell-based. Particulars: 100 μM, 24 hours. The source says: Cells were imaged using a Zeiss AxioObserver.D1 with an LD Plan-Neofluar 20×/0.4 air objective lens. Images were collected at room temperature through a Zeiss AxioCam MRm camera using Axiovision software.
Data set [2] has as its target T1, Panx1 hemichannels (Homo sapiens, UniProt Q96RD7). The experiment in a line: HIV-induced ethidium (Etd) dye uptake, time lapse fluorescence imaging, in PBMCs and CD4+ T lymphocytes. In kind it is cell-based. The arrangement: endogenous in cells; host or cells: primary human PBMCs and purified CD4+ T lymphocytes from leukopacks (New York Blood Center). Particulars: PBMCs exposed to HIVADA; CD4+ T lymphocytes exposed to HIVADA, HIVBal or HIVLAI; 5 min and 72 h; Prob 500 μM, 10Panx1 200 μM, scrPanx1 200 μM, La3+ 200 μM, Cx43E2 1:500, siRNA 10 nM. As to the method: Isolation of human PBMCs and CD4+ T lymphocytes. Anticoagulated blood was obtained from leukopacks obtained from the New York Blood Center as described before (16). PBMCs were isolated by under-layering with Ficoll-Paque (Amersham Bioscience, Uppsala, Sweden) according to the procedure described by the manufacturer. Purified PBMC used in these studies were ˜10% monocytes and ˜90% lymphocytes and other hematopoietic cells, as determined by incubation with premixed human CD45 and CD14 monoclonal antibodies conjugated to FITC and PE, respectively (1:50, Caltag Laboratories, Burlingame, Calif.), followed by fluorescence-activated cell sorter analysis (FACS) as we previously described (17). To obtain a pure population of CD4+ T lymphocytes, monocytes were removed from PBMCs by using CD14 coupled magnetic beads and subsequently CD4+ T lymphocytes were isolated with CD4 coupled magnetic beads (Stem Cell Technologies, Vancouver, BC, Canada).
(§1) HIV-infection and quantification of replication. Cell-free viral inocula were obtained from the National Institutes of Health AIDS Research and Reference Reagent Program. Three isolates were used: HIVADA, and HIVBal, two R5 isolates and HIVLAI, an X4 isolate, PBMCs and purified CD4+ T lymphocytes were isolated and activated with phytohemagglutinin (PHA; 5 μg/ml) plus interleukin (IL-2; 5%) in RPMI 1640 for 48 h in polypropylene tubes at a density of 2×10^6 […] PBMCs and CD4+ T lymphocytes were then infected by incubation for 24 h with viral stocks of HIVADA (20 ng p24/ml/1×10^6 cells), HIVLAI (20 ng p24/ml/1×10^6 cells) or HIVBal (0.001 MOI), washed thoroughly, resuspended in fresh medium, and maintained in polypropylene tubes. Uninfected control cells were activated with PHA plus IL-2 for 48 h, washed, and maintained in polypropylene tubes in fresh media without any virus. To determine the levels of HIV infection, the amount of HIV-p24 released into the medium was determined by ELISA (PerkinElmer, Boston, Mass.)
(§2) Dye uptake and time lapse fluorescence imaging. To characterize the functional state of Panx1 hemichannels, dye uptake experiments using ethidium (Etd) bromide were performed as previously described (18, 19). Cells were washed twice in Hank's balanced salt solution and then exposed to Locke's solution (containing: 154 mM NaCl, 5.4 mM KCl, 2.3 mM CaCl2, 5 mM HEPES and pH 7.4) with 5 μM Etd and time lapse microscopy was performed. Phase-contrast and fluorescence microscopy with time-lapse imaging were used to record cell appearance and fluorescence intensity changes in each condition. Fluorescence was recorded every 30 s. The NIH ImageJ program was used for off-line image analysis and fluorescence quantification. For data representation and calculation of Etd uptake slopes, the average of two independent background fluorescence intensity measurements (FB, expressed as arbitrary units, AU) was subtracted from fluorescence intensity′ in each cell (F1). Results of this calculation (F1-FB), for at least 20 cells, were averaged and plotted against time (expressed in minutes). Slopes were calculated using Microsoft Excel software and expressed as AU/min. Microscope and camera settings remained the same in all experiments. Dead cells were clearly identified during the time lapse microscopy due to their non specific Etd uptake (not inhibited by hemichannel blockers) and were not quantified.

The test system of another data set is HIVADA. The experiment in a line: HIV replication in CD4+ T lymphocytes, HIV-p24 ELISA. In kind it is cell-based, Human immunodeficiency virus-1 (HIV). Particulars: supernatants each day for 7 days, 10Panx1 200 μM, scrPanx1 200 μM, siRNA 10 nM. As to the method: as §1
(In an ELISA, binding on a coated surface is turned into a signal by an enzyme label.)

In data set [3] the target is T1, Panx1 hemichannels. The experiment in a line: Etd uptake in CD4+ T lymphocytes induced by chemokines or gp120. In kind it is cell-based. The arrangement: endogenous in cells; host or cells: primary human PBMCs and purified CD4+ T lymphocytes from leukopacks (New York Blood Center). The following applies: gp120 1 μg/ml, 5 min. As to the method: as §2
Data set [4] concerns the target T1, Panx1 hemichannels. The experiment in a line: HIV-induced Etd uptake in CD4+ T lymphocytes by flow cytometry (FACS). In kind it is cell-based. The arrangement: endogenous in cells; host or cells: primary human PBMCs and purified CD4+ T lymphocytes from leukopacks (New York Blood Center). The following applies: HIVADA, 5 min and 72 h. As to the method:
Flow cytometry. To measure Etd uptake in CD4+ T cell populations FACS analysis was performed of cells under control conditions or after HIV exposure at several time points. Etd uptake experiments were performed in CD4+ lymphocytes (3-5×10^5), and after the respective time of Etd uptake, cells were fixed with 2% paraformaldehyde for 30 min at room temperature, incubated with 1% BSA in PBS for 30 min and stained with CD4 antibody for 30 min at 4° C. For analyses of Etd positive populations, 10,000 events were acquired on a BD FACS Canto II and analyzed using FlowJo (Ashland, Oreg.) software as we previously described (17, 20).
(In general: Flow cytometry measures light scatter and fluorescence of single cells or particles in a stream.)

Data set [5] deals with β-lactamase containing HIVBaL. The experiment in a line: HIV Entry Assay (β-lactamase / CCF2-AM) in primary human macrophages. In kind it is cell-based, Human immunodeficiency virus-1 (HIV). Particulars: apyrase data; concentration not given. As to the method:
HIV Entry Assay: Primary human macrophages were cultured in black 96-well plates with a clear bottom (Corning Inc., Corning, N.Y.) at a density of 43,000 cells per well. After 7-8 days in culture, cells were inoculated with β-lactamase containing HIVBaL at a multiplicity of infection (MOI) of 0.01, 0.005, or 0.001 in the presence or absence of the purinergic receptor inhibitors oATP, NF 279, A-740003, or MRS 2179 for 4 hours. Beta-lactamase containing HIVBaL was generated as described previously (27). Briefly, HEK-293T cells were transfected using calcium phosphate with two plasmids, one containing the HIVBaL genome, pWT/BaL (NIH repository), the other containing β-lactamase fused to REV vpr, pMM310 (NIH repository). Cells were transfected for 16 hours and then supernatant was collected 24 and 48 hours following transfection. […] Viral stocks were generated by sucrose gradient purification of the transfection supernatants.
Alter viral inoculation of primary human macrophages, cells were washed with phenol red-free DMEM (Gibco) then loaded with CCF2-AM for 6 hours at room temperature using the GeneBLAzer In Vivo Detection Kit (Invitrogen, Carlsbad, Calif.). CCF2-AM fluoresces green due to an internal fluorescence resonance energy transfer, but when cleaved by β-lactamase, this interaction is lost and the molecule fluoresces blue. Cells were imaged using an Olympus IX70 with a Plan 10×/0.25 air objective lens. Images were collected at room temperature through an Olympus E-620LS camera attached to the microscope through an OM adapter MF-1. Images were collected directly onto a memory card and there was no image processing following image collection. Images were collected for 8 fields in 4 separate wells per condition and percentage of cells positive for viral entry was determined by counting the number of blue cells (cells that virus had entered) as compared to the total number of blue and green cells.

“Also recorded” adds a separate entry of the source.

T1 sequence (Q96RD7 whole entry): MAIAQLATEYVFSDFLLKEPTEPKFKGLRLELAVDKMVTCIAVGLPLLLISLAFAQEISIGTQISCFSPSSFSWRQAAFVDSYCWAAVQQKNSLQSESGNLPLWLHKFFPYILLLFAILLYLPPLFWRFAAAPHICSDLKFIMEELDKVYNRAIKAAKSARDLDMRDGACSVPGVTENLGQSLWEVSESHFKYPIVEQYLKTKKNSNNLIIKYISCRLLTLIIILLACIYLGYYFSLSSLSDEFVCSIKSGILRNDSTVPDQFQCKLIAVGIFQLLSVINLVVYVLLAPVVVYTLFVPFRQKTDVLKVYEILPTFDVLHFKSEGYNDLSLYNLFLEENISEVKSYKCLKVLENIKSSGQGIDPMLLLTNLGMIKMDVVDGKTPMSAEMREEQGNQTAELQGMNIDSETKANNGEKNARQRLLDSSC

Consider `CCOc1ccc(Nc2ccc(/C(=C3C=C/C(=[N+](/CC)Cc4cccc(S(=O)(=O)[O-])c4)C=C/3C)c3ccc(N(CC)Cc4cccc(S(=O)(=O)[O-])c4)cc3C)cc2)cc1.[Na+]` [BBG, brilliant blue G], for which the “inhibition of viral replication relative to cultures infected with HIV only” value in the data set with HIV (macrophage cultures, BBG concentration and strain not printed at the place) is given as 54-90%. Also, the “recovery after spinal cord injury” value in data set [1] (rat model of traumatic spinal cord injury, reference 75) is “recovery of motor function and limited inflammation following spinal cord injury”. Further, the toxicity in vivo result in data set [1] (rat, in vivo) was “without any toxicity”. The “cell viability (live/dead assay)” value with Macrophages is “None of the antagonist caused any decrease in cell viability”.
As for “FADRYWAQVS (scrambled peptide) [scrPanx1]”, the “Etd uptake (rate) induced by the virus” value with Panx1 hemichannels [2] is “did not affect”. Also, the “HIV replication (HIV-p24 release into the media)” value with HIVADA is on record as “did not alter”. In addition, the “gp120-induced Etd uptake, in presence of blockers” value with Panx1 hemichannels [3] was “No effects”.
For “WRQAAFVDSY (Panx1 mimetic blocking peptide) [10Panx1]”, the “Etd uptake (rate) induced by the virus” value with Panx1 hemichannels [2] was “completely blocked; also recorded: completely reduced”. Also, in the data set with HIVADA, the “HIV replication (HIV-p24 release into the media)” value is on record as “abolished HIV replication to almost control undetectable levels; also recorded: dramatically reduced”. For the same compound, the “gp120-induced Etd uptake, in presence of blockers” value with Panx1 hemichannels [3] is recorded as “inhibited”. Moreover, the “Etd uptake induced by the virus, analyzed by FACS” value with Panx1 hemichannels [4] is recorded as “reduced Etd uptake; also recorded: reduced to control conditions (100%)”.
Turning to apyrase, in the data set with HIV (apyrase data, concentration not given), the “reduction in HIV replication in macrophages” value is listed as “no reduction”. The “reduction in HIV entry in macrophages” value in data set [5] is on record as “no reduction”.
